Experimental data reported in patent US11510943B2, “Chemotherapeutic agent comprising combination of alexidine dihydrochloride and sodium pentaborate pentahydrate” (YEDITEPE UNIVERSITESI, priority 2018, dated 2022).
Entries after “also recorded” stand apart in the source; their conditions may differ. Structures can show the parent of a compound that is named as a salt.

Legend:
[1] = tested on: pancreatic cancer cell (MIA PaCa-2); test: colorimetric tetrazolium salt (MTS) viability assay, MIA PaCa-2; conditions: Homo sapiens, MIA PaCa-2, 48 h, read-out: viability of MIA PaCa-2 cells
Description: (§1) This value is 10-20% more than the chemotherapeutic effect of alexidine dihydrochloride alone.

[2] = tested on: pancreatic cancer cell (AsPc-1); test: colorimetric tetrazolium salt (MTS) viability assay, AsPc-1
Description: as §1

[3] = tested on: pancreatic cancer cell (Psn-1); test: colorimetric tetrazolium salt (MTS) viability assay, Psn-1
Description: as §1

[4] = tested on: healthy human pancreatic cell (hTert-HPNE); test: colorimetric tetrazolium salt (MTS) viability assay, hTert-HPNE; type: cell-based; conditions: AD alone, 2.5 μM, 48 hours of incubation
[5] = tested on: healthy intervertebral disc cell (HNPC); test: colorimetric tetrazolium salt (MTS) viability assay, HNPC; type: cell-based; conditions: AD alone, 2.5 μM, 48 hours of incubation
[6] = tested on: pancreatic cancer cells (MIA PaCa-2, AsPc-1 and Psn-1); test: colorimetric tetrazolium salt (MTS) viability assay, pancreatic cancer cells together; conditions: Pancreatic cancer cell, 48 h, read-out: viability of the pancreatic cancer cells
Description: as §1

[7] = tested on: healthy cells (hTert-HPNE, HNPC, hFSSCs, HUVEC); test: toxicity analysis (MTS viability assay), healthy cells together; type: cell-based
[8] = solubility in dimethylsulfoxide; type: physicochemical; conditions: organic solvent or mixture
Protocol: The chemotherapeutic agent of the present invention comprises a combination of alexidine dihydrochloride and sodium pentaborate pentahydrate and induces apoptosis on pancreatic cancer cells. Alexidine dihydrochloride is a compound having a molecular weight of 581.71 gram/mol and the chemical formula of C26H56N10 ·2HCl and it is dissolved in dimethylsulfoxide of 10 mg/ml or above.

[9] = Protocol: The sodium pentaborate pentahydrate compound was dissolved in the appropriate medium for the cell that was used and filtered to enable sterilization.
[10] = AD alone 2.5 μM, 48-hour incubation, dihydrochloride

Row | Compound | viability at 2.5 µM [1] | viability of AsPc-1 cells [2, 10] | viability at 2.5 µM ([2]; Homo sapiens, ASPC1, 48 h, read-out: viability of AsPc-1 cells, AD alone 2.5 μM, 48-hour incubation) | viability of Psn-1 cells [3, 10] | viability at 2.5 µM ([3]; Homo sapiens, PSN1, 48 h, read-out: viability of Psn-1 cells, AD alone 2.5 μM, 48-hour incubation) | effect on healthy pancreas cell (hTert-HPNE) [4] | effect on healthy intervertebral disc cells (HNPC) [5] | viability at 2.5 µM [6] | effect on healthy cells ([7]; AD alone 2.5 μM, 48-hour incubation, hTert-HPNE and HNPC, dihydrochloride) | solubility [8] | average vitality ([7]; NAB alone 1000 μM, incubated for 48 hours, hTert-HPNE, HNPC, hFSSCs, HUVEC) | dissolution in the medium ([9]; concentrations used (100-1000 μM), no additional solvent) | precipitate formation in the medium ([9]; medium pH 7.4, 72 hours)
1 | CCCCC(CC)CNC(=N)NC(=N)NCCCCCCNC(=N)NC(=N)NCC(CC)CCCC (stereo not shown) [AD, alexidine dihydrochloride] | 53% | 58.3% | 58% | 51.6% | 45% | not affected | not affected | 50% | did not harm the healthy cells; also recorded: do not kill the healthy cells | ≥ 10000 µg/mL | – | – | –
2 | sodium pentaborate pentahydrate [NAB] | – | – | – | – | – | – | – | – | – | – | 70% | dissolved instantly | did not form sodium pentaborate pentahydrate precipitate
